Results: patent US7256219B2, “Multifluoro-substituted chalcones and analogs as activators of caspases and inducers of apoptosis and the use thereof” (Cytovia, Inc., priority 2001, dated 2007)

What was measured:
ZR-75-1 cells = experiment: Caspase cascade activation (N-(Ac-DEVD)-N'-ethoxycarbonyl-R110 fluorogenic substrate) in ZR-75-1 cells; format: cell-based, Human; conditions: ZR-75-1, 24 h incubation; for EC50: Homo sapiens, read-out: Caspase potency EC50; for Caspase activity Ratio (net RFU of test compound to that of control): 0.016 to 10 μM final
Procedure: (§1) Human breast cancer cell lines T-47D and ZR-75-1 were grown according to media component mixtures designated by American Type Culture Collection+10% FCS (Invitrogen Corporation, Life Technologies Division), in a 5% CO2-95% humidity incubator at 37° C. T-47D and ZR-75-1 cells were maintained at a cell density between 50 and 80% confluency at a cell density of 0.1 to 0.6×10^6 cells/ml. Cells were harvested at 600×g and resuspended at 0.65×10^6 cells/ml into appropriate media+10% FCS. An aliquot of […] of cells was added to a well of a 96-well microtiter plate containing 2.5 μl of a 10% DMSO in RPMI-1640 media solution containing 0.16 to 100 μM of 1-[2,5-bis(2,2,2-trifluoroethoxy)phenyl]-3-[4-(trifluoromethyl)phenyl]-2-propen-1-one or other test compound (0.016 to 10 μM final). An aliquot of 22.5 μl of cells was added to a well of a 384-well microtiter plate containing 2.5 μl of a 10% DMSO in RPMI-1640 media solution without test compound as the control sample. The samples were mixed by agitation and then incubated at 37° C. for 24 h in a 5% CO2-95% humidity incubator. After incubation, the samples were removed from the incubator and 25 μl of a solution containing 14 μM of N-(Ac-DEVD)-N′-ethoxycarbonyl-R110 (SEQ. ID NO:1) fluorogenic substrate (Cytovia, Inc.; WO99/18856), 20% sucrose (Sigma), 20 mM DTT (Sigma), 200 mM NaCl (Sigma), 40 mM Na PIPES buffer pH 7.2 (Sigma), and 500 μg/ml lysolecithin (Calbiochem) was added. The samples were mixed by agitation and incubated at room temperature. Using a fluorescent plate reader (Model SpectraMax Gemini, Molecular Devices), an initial reading (T=0) was made approximately 1-2 min after addition of the substrate solution, employing excitation at 485 nm and emission at 530 nm, to determine the background fluorescence of the control sample. After the 3 h incubation, the samples were read for fluorescence as above (T=3 h).
(§2) The Relative Fluorescence Unit values (RFU) were used to calculate the sample readings as follows: RFU(T=3h)−Control RFU(T=0)=Net RFU(T=3h)
(§3) The activity of caspase cascade activation was determined by the ratio of the net RFU value for 1-[2,5-bis(2,2,2-trifluoroethoxy)phenyl]-3-[4-(trifluoromethyl)phenyl]-2-propen-1-one or other test compound to that of control samples. The EC50 (nM) was determined by a sigmoidal dose-response response calculation (Prism 2.0, GraphPad Software Inc.).

T-47D cells [1] = experiment: Caspase cascade activation (N-(Ac-DEVD)-N'-ethoxycarbonyl-R110 fluorogenic substrate) in T-47D cells; format: cell-based, Human; conditions: 24 h incubation; for Caspase activity Ratio (net RFU of test compound to that of control): 0.016 to 10 μM final; for EC50: Homo sapiens, T47D, read-out: Caspase potency EC50
Procedure: as §1, §2, §3

PC-3 = experiment: Inhibition of cell proliferation (GI50), PC-3; format: cell-based; conditions: Homo sapiens, PC-3, 48 h
Procedure: (§4) All the cell lines were grown according to the conditions recommended by American Type Culture Collection. An aliquot of 90 μl of cells (2.2×10^4 cells/ml) was added to a well of a 96-well microtiter plate containing 10 μl of a 10% DMSO in RPMI-1640 media solution containing 1 nM to 100 μM of 1-[2,5-bis(2,2,2-trifluoroethoxy)phenyl]-3-[4-(trifluoromethyl)phenyl]-2-propen-1-one (0.1 nM to 10 μM final). An aliquot of 90 μl of cells was added to a well of a 96-well microtiter plate containing 10 μl of a 10% DMSO in RPMI-1640 media solution without compound as the control sample for maximal cell proliferation (AMax). The samples were mixed by agitation and then incubated at 37° C. for 48 h in a 5% CO2-95% humidity incubator. After incubation, the samples were removed from the incubator and 20 μl of CellTiter 96 AQUEOUS One Solution Cell Proliferation™ reagent (Promega) was added. […] Using an absorbance plate reader (Model 1420 Wallac Instruments), an initial reading (T=0) was made approximately 1-2 min after addition of the solution, employing absorbance at 490 nm. This determines the possible background absorbance of the test compounds. No absorbance for 1-[2,5-bis(2,2,2-trifluoroethoxy)phenyl]-3-[4-(trifluoromethyl)phenyl]-2-propen-1-one was found at 490 nm. After the 2-4 h incubation, the samples were read for absorbance as above (ATest). […]

HeLa = experiment: Inhibition of cell proliferation (GI50), HeLa; format: cell-based; conditions: Homo sapiens, 48 h
Procedure: as §4

SK-Br-3 = experiment: Inhibition of cell proliferation (GI50), SK-Br-3; format: cell-based; conditions: Homo sapiens, SK-BR-3, 48 h
Procedure: as §4

MDA-MB-435 = experiment: Inhibition of cell proliferation (GI50), MDA-MB-435; format: cell-based; conditions: Homo sapiens, MDA-MB-435, 48 h
Procedure: as §4

K562 = experiment: Inhibition of cell proliferation (GI50), K562; format: cell-based; conditions: Homo sapiens, K562, 48 h
Procedure: as §4

DLD-1 = experiment: Inhibition of cell proliferation (GI50), DLD-1; format: cell-based; conditions: Homo sapiens, DLD-1, 48 h
Procedure: as §4

PANC-1 = experiment: Inhibition of cell proliferation (GI50), PANC-1; format: cell-based; conditions: Homo sapiens, PANC-1, 48 h
Procedure: as §4

T-47D = experiment: Inhibition of cell proliferation (GI50), T-47D; format: cell-based; conditions: Homo sapiens, T47D, 48 h
Procedure: as §4

MCF-7 = experiment: Inhibition of cell proliferation (GI50), MCF-7; format: cell-based; conditions: Homo sapiens, MCF7; MCF-7, 48 h
Procedure: as §4

T-47D cells [2] = experiment: Cell cycle arrest and apoptosis in T-47D cells (propidium iodide flow cytometry); format: cell-based, Human; conditions: 10 μM
Procedure: T-47D, a breast cancer cell line, was maintained and harvested as described in Example 23. […] As a control, cells were also incubated with equivalent amount of solvent (DMSO). Cells were harvested at 1,200 rpm and then transferred to 12×75 mm polystyrene tubes. Cells were then resuspended in 500 μl of 1% Na Citrate, 0.1% Triton X-100, and 50 μg/ml of propidium iodide and incubated at room temperature for 30 min followed by flow cytometer analysis. All flow cytometry analyses were performed on FACScalibur (Becton Dickinson) using Cell Quest analysis software. The x-axis plotted the amount of fluorescence and the y-axis is plotted the number of cells with the indicated fluorescence. […] An increase from 13% to 33% in the sub-diploid DNA content of cells (FIG. 1) is also seen with compound treatment. The sub-diploid amount of DNA is indicative of apoptotic cells which have undergone DNA degradation or fragmentation.

EC50 (ZR-75-1 cells) [nM] | EC50 (T-47D cells [1]) [nM] | GI50 (PC-3) [nM] | GI50 (HeLa) [nM] | GI50 (SK-Br-3) [nM] | GI50 (MDA-MB-435) [nM] | GI50 (K562) [nM] | GI50 (DLD-1) [nM] | GI50 (PANC-1) [nM] | GI50 (T-47D) [nM] | GI50 (MCF-7) [nM] | Structure (SMILES) | Caspase activity Ratio (net RFU of test compound to that of control) (ZR-75-1 cells) | Caspase activity Ratio (net RFU of test compound to that of control) (T-47D cells [1]) | sub-diploid DNA content of cells (M1) (T-47D cells [2]; T47D, 24 h, FIG. 1B legend) | G2/M DNA content cells (T-47D cells [2]; T-47D, FIG. 1B) | sub-diploid DNA content of cells (T-47D cells [2]; T-47D, control 13%) [%]
5400 | 1600 |  |  |  |  |  |  |  |  |  | O=C(C=Cc1ccccc1)c1cc(OCC(F)(F)F)ccc1OCC(F)(F)F [Example 3, 1-[2,5-Bis(2,2,2-trifluoroethoxy)phenyl]-3-phenyl-2-propen-1-one] | 3.3 | 6.8 |  |  | 
6000 | 5000 | 3000 | 2300 | 1800 | 3200 | 2200 | 2500 | 3100 | 1500 | 2400 | O=C(C=Cc1ccc(C(F)(F)F)cc1)c1cc(OCC(F)(F)F)ccc1OCC(F)(F)F [Example 4, 1-[2,5-Bis(2,2,2-trifluoroethoxy)phenyl]-3-[4-(trifluoromethyl)phenyl]-2-propen-1-one] | 5.5 | 25.2 | increase of sub-diploid DNA content of cells | increase in G2/M DNA content cells | 33
6900 | 6800 |  |  |  |  |  |  |  |  |  | O=C(C=Cc1ccc([N+](=O)[O-])cc1)c1cc(OCC(F)(F)F)ccc1OCC(F)(F)F [Example 15, 1-[2,5-Bis(2,2,2-trifluoroethoxy)phenyl]-3-(4-nitrophenyl)-2-propen-1-one] | 14.9 | 20.4 |  |  | 
